In patent publication US20240276935A1, “METHODS FOR ENHANCING DISEASE RESISTANCE AND INCREASING BIOMASS YIELD AND SECONDARY METABOLITE QUANTITIES IN CANNABIS SATIVA UTILIZING PLANT DEFENSE-RESPONSE ELICITORS” (priority 2023, published 2024):

Experiments:
C. sativa = tested on: C. sativa; set-up: species or system Cannabis sativa; conditions: in vivo
Fusarium sp. = assay: Protective effect on rooting clones of C. sativa against Fusarium sp. (Table 1); type: in vivo; conditions: for Total Alive: cultivar III clones alive; for Total Alive / Total Dead: total of 30 replicate clones per elicitor treatment; for Total Dead: cultivar III clones dead; for Mean Survival: rooting clones of cultivar III, sprayed daily ~2 ml solution/clone, inoculated with Fusarium culture (~10^3 Cfu/ml), survival one week later, three repeats of 10 clones
Protocol: Cultivar III was shown from the data in FIG. 1B to be most susceptible to mold pathogens. Thus, 10 clones of cultivar III were selected to be treated with formulations containing bacterial/fungal PAMP elicitor compounds (as listed in Table 1) formulated in water. Treatments were performed by spraying the clones daily with ˜2 ml solution/clone, starting one week after cutting. Plants were inoculated two weeks after cutting (one week after treatment application) by applying 10 ml Fusarium culture (˜10^3 Cfu/ml) to the water tray. After one hour, clones were removed and placed in clean water trays. Survival was assessed one week later upon reaching the vegetative growth phase. The experiment was repeated three times for a total of 30 replicate clones per elicitor treatment.

medical cannabis variety = conditions: 0.1 mM, foliar application; cited from earlier work
cannabis sativa = conditions: cited from earlier work

| Compound | Yield (g/plant), Cultivar I (C. sativa) | Yield (g/plant), Cultivar II (C. sativa) | Yield (g/plant), Cultivar III (C. sativa) | Total Alive (Fusarium sp.) | Total Dead (Fusarium sp.) | Mean Survival (Fusarium sp.) | increase of CBDA content in inflorescences (medical cannabis variety) | A9-THC in extract (cannabis sativa; 1 M of SA (highest)) | CBD in extract (cannabis sativa; 1 M of SA (highest)) | TPC, TFC, TCC, Chl a, Chl b, and antioxidant capacity (cannabis sativa; 1 M treatment, lowest in control plants) |
| --- | --- | --- | --- | --- | --- | --- | --- | --- | --- | --- |
| O=C(O)[C@H]1OC(O)[C@H](O)[C@@H](O)[C@H]1O (stereo partly shown) [D Galactoronic Acid] | 13.5 ± 1.8 g/plant | 11.5 ± 2.1 g/plant | 10.2 ± 1.8 g/plant | – | – | – | – | – | – | – |
| COc1cc(/C=C/CO)cc(OC)c1O [Sinapyl Alcohol (Syringil monomer), Sinapyl Alcohol] | 16.4 ± 1.2 g/plant | 12.9 ± 2.1 g/plant | 13.5 ± 2.6 g/plant | – | – | – | – | – | – | – |
| COc1cc(/C=C/CO)ccc1O [Coniferyl Alcohol] | 13.6 ± 2.9 g/plant | 12.8 ± 1.3 g/plant | 12.4 ± 1.8 g/plant | – | – | – | – | – | – | – |
| CC(=O)N[C@H]1C(O)O[C@H](CO)[C@@H](O)[C@@H]1O[C@H](C)C(=O)O (stereo partly shown) [N-Acetylmuramic Acid] | 13.4 ± 2.1 g/plant | 11.5 ± 2^ g/plant | 11.5 ± 1.6 g/plant | 21 | 9 | 70.0% | – | – | – | – |
| CC/C=C\CC1C(=O)CCC1CC(=O)OC (stereo not shown) [MeJA, methyl jasmonate] | – | – | – | – | – | – | 15.6% | – | – | – |
| O=C(O)c1ccccc1O [SA, salicylic acid] | – | – | – | – | – | – | – | 22.84% | 37.81% | highest |
| CC(=O)N[C@H]1C(O)O[C@H](CO)[C@@H](O)[C@@H]1O (stereo partly drawn) [N-Acetyl-D-Glucosamine (4), N-Acetyl-D-Glucosamine] | 11.6 ± 1.7 g/plant | 10.7 ± 1.9 g/plant | 9.2 ± 0.7 g/plant | 21 | 9 | 70.0% | – | – | – | – |
| OC/C=C/c1ccc(O)cc1 [Paracoumaryl Alcohol] | 14.7 ± 2.5 g/plant | 9.2 ± 1 g/plant | 11.9 ± 2.9 g/plant | – | – | – | – | – | – | – |
